Measured values: patent publication US20020049157A1, “Use of proteasome inhibitors for treating cancer, inflammation, autoimmune disease, graft rejection and septic shock” (priority 1998, published 2002)

Columns and labels:
[1] = test system: cyclin A; assay: Immunoblotting of cyclin A level in T cells; type: cell-based, human; details: PHA plus hydroxyurea block, released; LAC added at release
Procedure: Tonsillar T cells were stimulated with PHA (2 μg/ml) for 40 h in the presence of hydroxyurea (1 mM), and these cells were blocked at the G1/S boundary (G1 block). The synchronization was released by washing out hydroxyurea, and the cells were recultured in medium containing 2 μg/ml PHA in the absence or presence of LAC ([…], added once at the time of the release). The cells were harvested at 6 h and 22 h post the G1/S block. The cell lysates (40 μg/sample) were resolved in 10% SDS-PAGE, and transferred to PVDF membranes. The membranes were hybridized with rabbit-anti-Cyclin E or anticyclin A antisera followed by ^125I-protein A. The Cyclin E level (FIG. 8A) and cyclin A level (FIG. 8B) of representative experiments are shown. Similar results were obtained in a total of three independent experiments.
The G1/S phase synchronized T cells represented activated cells, and prolonged exposure to LAC would cause significant cell death.
Tonsillar T cells were cultured in the presence of 2 μg/ml PHA and 1 mM hydroxyurea for 40 h. The cells thus treated were synchronized at the G1/S phase. […]
Immunoblotting was employed to evaluate the levels of Cyclin E, cyclin A, p21^Cip1 and p27^Kip1. […] The cleared lysates were quantitated for protein concentrations. […] The signals on the membrane were detected by [^125I]-protein A followed by autoradiography.

[2] = test system: Jurkat cells; assay: Respiration (O2 consumption) of Jurkat cells, oxygen electrode; type: cell-based
From the text: The function of Complex I of digitonin (Dig)-permeated Jurkat cells was blocked by rotenone (Rot), and the respiration was resumed by adding succinate (Suc), which provides electrons to Complex II directly and thus bypasses Complex I. The maximal respiration was achieved by adding CCCP (carbonyl cyanide m-chlorophenylhydrazone), which uncouples the oxidation and phosphorylation. The respiration could be blocked by antimycin A (Ant), which inhibits […]. Curves 1 and 6 represent positive controls of rat kidney mitochondria. Curves 2 and 5 represent normals untreated Jurkat cells. Curves 3 and 4 represent Jurkat cells treated with lactacystin (6 μM) for 2 h and 4 h, respectively.
Complex III in the respiration chain was blocked at Complex III antimycin (Ant), and the electron flow was resumed by addiind ascorbate (Asc) and TMPD (tetramethyl-p-phenyl-enediamine).
The assay system is identical to that described in FIG. 16. Jurkat cells were treated with LAC for 4 h (curve 3). The decoupling reagent used in this experiment to achieve maximal respiration is FCCP (carbonylcyanide-p-trifluoromethoxyphenylhydrazone).
The Jurkat Cells (JC) (30×10^6/ml) or rat kidney proximal tubules mitochondria (RKM) (0.5 mg of protein/ml) were incubated in 1 ml measuring chamber at 37° C. in a respiration buffer containing 200 mM sucrose, 5 mM MgCl2, 5 mM KH2PO4, and 30 mM HEPES-Tris (pH 7.5). During respiration experiments following substrates and inhibitors were used: 0.005% Digitonine (Dig); 10 mM Succinate (Suc); 1 mM Ascorbate (Asc); 0.4 mM tetramethyl-p- phenylenediamine (TMPD); 1 μM CCCP, 1 μM FCCP; 0.1 μM Rotenone (Rot); 50 nM Antimycin A (Anti); 1 mM KCN; 100 μM Cytochrome C (Cyt C). The respiration rate of the Jurkat Cells and mitochondria was measured polarographically with a Clarke oxygen electrode (Yellow Springs Instruments, Yellow Springs, Ohio, U.S.A.) using 1 ml thermojacketed chamber. Oxygen concentration was calibrated with air-saturated buffer using Hypoxanthine—Xanthine Oxidase—Catalase system (“chemical zero”). Oxygen consumption was continuously recorded using a “MacLab/8” (Analog Digital Instruments, U.S.A.) connected to a Macintosh SE computer and the MacLab Chart v.3.3.4 software. Rates of oxygen consumption are expressed as ng-atoms of oxygen/min.

[3] = test system: Tonsillar T cells; assay: T cell viability by trypan blue exclusion; type: cell-based, human; details: for decrease of viability compared with cells without LAC: 10 μM LAC, medium or PHA
Procedure: Tonsillar T cells (A, B, and D) and Jurkat cells (C and E) were treated with LAC (10 μM for T cells and 6 μM for Jurkat cells). LAC was added at the beginning of the culture or 40 h after T cell activation as indicated. The cells were harvested at the time points as shown. They were evaluated for their viability with trypan blue exclusion (A, B, and C), and for their mode of cell death according to DNA fragmentation (D and E).
The viability of T cells and Jurkat cells after LAC-treatment was first evaluated with trypan blue exclusion. Resting T cells (T cells in medium) or PHA-stimulated T cells were cultured with 10 μM LAC (LAC added at the beginning of the culture).
There was a tendency that the activated T cells were more susceptible to LAC than the resting T cells. This became more evident when LAC was added to T cells 40 h after the PHA activation (FIG. 2B). […] On the other hand, the viability of the resting T cells in medium had only a small decrease (from 98% of the control to 87% of the LAC-treated) after 24 h of LAC presence.

[4] = test system: Bax, Bak and Bad; assay: Immunoblotting of Bax, Bak and Bad in Jurkat cells; type: cell-based; details: lactacystin 6 μM
Procedure: Jurkat cells were treated with lactacystin (6 μM) for 5 h (lanes 2 and 4 of panel A), 4 h (lane 2 of panel B) or 7 h (lane 3 of panel B), lane 1 in panels A and B is untreated control samples. The cells were separated into mitochondrial (mito in panel A and mitochondria in panel B) and cytosolic (cytosol in panel A) fractions, and the lysate of these two fractions analyzed by immunoblotting using goat anti-Bik, and rabbit anti-Bax, Bak and Bad Ab (all from Santa Cruz Biotech, Santa Cruz, Calif.) followed by enhanced chemiluminescence (ECL, kit from Amersham).

SMILES: CC(=O)N[C@@H](CSC(=O)[C@]1([C@@H](O)C(C)C)NC(=O)[C@H](C)[C@@H]1O)C(=O)O [LAC, lactacystin]
- cyclin A level during the S phase [1]: did not affect the level
- respiration after Complex I blockage (rotenone) on adding succinate ([2]; LAC 6 μM for 4 h): could not be resumed by adding succinate
- O2 consumption after Complex III (ascorbate and TMPD) ([2]; LAC for 4 h): could not be resumed by ascorbate and TMPD
- O2 consumption after the addition of ascorbate and TMPD ([2]; LAC for 4 h, FCCP as decoupling reagent): reduced augmentation of O2 consumption
- electron transport of the respiratory chain ([2]; within 4 h): reduce the electron transport at the complex IV
- decrease of viability compared with cells without LAC ([3]; 16 h culture): < 12%
- decrease of viability compared with cells without LAC ([3]; 64 h culture): less than 27%
- viability (trypan blue exclusion) ([3]; PHA-stimulated T cells, 10 μM LAC added at beginning, 16 h): 83%
- viability (trypan blue exclusion) ([3]; PHA-stimulated T cells, 10 μM LAC added at beginning, 64 h): 63%
- viability of the LAC-treated cell ([3]; PHA, LAC 10 μM added once initially, at 40 h): > 80%
- viability of the treated cells ([3]; PHA, LAC added once at the beginning, at 16 h): 83
- change of viability (trypan blue exclusion) ([3]; activated T cells, LAC added 40 h after PHA, 9 h culture): did not change the viability significantly
- viability (trypan blue exclusion) ([3]; activated T cells, LAC added 40 h after PHA, additional 24 h culture): 46%
- viability (trypan blue exclusion) ([3]; resting T cells in medium, 10 μM LAC added at beginning, 16 h): 92%
- viability (trypan blue exclusion) ([3]; resting T cells in medium, 10 μM LAC added at beginning, 64 h): 79%
- viability (trypan blue exclusion) ([3]; resting T cells in medium, 24 h of LAC presence): 87%
- amounts of Bax, Bak and Bad [4]: does not appear to have altered
